From patent US20120264825A1, “Amino Acid Perhydrates, Process for Their Preparation and Uses thereof” (priority 2009, published 2012)

Tests used:
[1] = peak appears above the melting temperature; 2 degree/min under nitrogen flow
Protocol: TG and DSC studies were performed on Thermobalance, TG50 and differential scanning calorimeter, DSC 822 (Mettler, Toledo) in the range 25-200° C. under nitrogen flow at a heating rate of 2 degree/min.

[2] = Protocol: The compounds may be kept, for example, in closed vessels in a 4° C. refrigerator.

Question: Which “exothermic decomposition peak (DSC)” value [1] does the source give for N[C@@H](CO)C(=O)O.OO [Example 1, L-Serine Mono Hydrogen Peroxide Solvate C3H7NO3.H2O2] here?
Answer: about 85 °C

Question: And the “hydrogen peroxide concentration on storage” value ([2]; room temperature, several months)?
Answer: maintained constant hydrogen peroxide concentration for several months

Question: And the “loss of active oxygen on storage” value ([2]; stored at room temperature for at least three weeks)?
Answer: no loss of active oxygen
